Experimental data taken from patent publication US20240174648A1, “Small Molecule Compound” (Technoderma Medicines Pte Ltd, priority 2019, published 2024).

Legend:
Assay type in all cases: biochemical
JAK1 = JAK1 (Homo sapiens, UniProt P23458); experiment: JAK kinase inhibition assay (EZ Reader, peptide substrate phosphorylation) - JAK1; conditions: JAK1 kinase 20 nM; 8 concentration points, max 10 μM
Outline: (§1)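 Microfluidic mobility-shift detection of fluorescent peptide substrate phosphorylation, with JAK1 at 20 nM and JAK2, JAK3 and Tyk2 each at 1 nM final, in 20 mM HEPES pH 7.4, 10 mM MgCl2, 1 mM DTT. Reactions run at room temperature to 20–30% conversion, then EDTA-stopped. Compounds tested at 8 three-fold dilutions from 10 μM top final; IC50 from conversion curves.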

JAK2 = JAK2 (Homo sapiens, UniProt O60674); experiment: JAK kinase inhibition assay (EZ Reader, peptide substrate phosphorylation) - JAK2; conditions: JAK2 kinase 1 nM; 8 concentration points, max 10 μM
Source text: (§2) Assay for Identifying Inhibitory Effects of Compounds on JAK Kinases
(§3) Janus kinases (JAK), including JAK1, JAK2, JAK3 and Tyk2, transduce a cytokine-mediated signal through a JAK-STAT pathway. The kinases are 120-140 kDa in size and have 7 determined homology regions: JH1 to JH7. JH1 is an important region for enzymatic activity and has typical characteristics of tyrosine kinases. Phosphorylation of tyrosine leads to a change in the conformation of JAK protein, thereby promoting binding of substrate. The JAK-STAT system includes three main parts: receptors penetrating a cell membrane, Janus kinases binding to the receptors, and signal transducers and activators of transcription (STAT) for transmitting signals to a nucleus and DNA. When cytokines bind to receptors, JAK phosphorylates the receptors and attracts STAT proteins. The STAT proteins are also phosphorylated and combined with one another to form dimers. The dimers enter the nucleus and bind to DNA, thereby leading to gene transcription.
(§4) EZ Reader from PerkinElmer can be used to detect the phosphorylation of polypeptide substrates catalyzed by kinases. The device is based on microfluidic techniques, and can directly detect fluorescently labeled substrates and products. The separation step is achieved by controlling the pressure and electric field strength in the microfluidic chip. In kinase assays, a product conversion ratio is usually controlled to be 20-30%. A biological test is used to identify inhibitory effects of compounds on JAKs.
(§5) Compound powder was dissolved in DMSO, sealed and stored in a freezer under −20° C. The in-house compound Ref1 was used as a positive control for JAK1, JAK2 and Tyk2 tests, and Ref2 was used as a positive control for JAK3 tests.
(§6) S2.8. Assay buffer: 20 mM HEPES buffer, pH 7.4, 10 mM magnesium chloride, 0.01% bovine serum albumin BSA, 0.0005% Tween-20 and 1 mM dithiothreitol solution.
(§7) S2.9. Stop buffer: 180 mM HEPES buffer, 20 mM ethylenediaminetetraacetic acid and 0.2% coating reagent 3.
(§8) S2.10. Separation buffer: 100 mM HEPES buffer, 10 mM ethylenediaminetetraacetic acid, 0.0005% Tween 20, 0.1% coating reagent 3 and 1% dimethyl sulfoxide.
The compound was dissolved in dimethyl sulfoxide and diluted to 10 mM concentration, a certain volume of solution was taken and diluted to 0.6 mM concentration, 10 μL of the 0.6 mM dilution was added to a 384-well microplate, and then was diluted 3-fold with a total of 8 concentration points.
Positive control (HPE1): Ref1, final concentration: 10 μM […]
(§9) Negative control (ZPE): DMSO, final content: 1.6%
(§10) Compounds: maximum final concentration: 10 μM; 3-fold dilution, 8 concentration points and 2 duplicates.
(§11) S4.1. 250 nL of the compound was added to each well of the assay microplate by using ECHO, and centrifuged at 1000 rpm for 1 minute.
(§12) S4.2. 5 μL of the assay buffer was added and agitated for a few seconds to fully dissolve the compound.
(§13) S4.3. 5 μL of 3× substrate solution and 5 μL of 3× kinase solution were added and centrifuged at 800 rpm for 1 minute.
(§14) S4.4. Final concentrations of JAK1, JAK2, JAK3 and Tyk2 kinases in the reaction system were 20 nM, 1 nM, 1 nM and 1 nM respectively.
(§15) S4.5. Incubation at room temperature, where kinases had time differences, and different batches of kinases had time differences.
(§16) S4.6. When 20%-30% of the reaction completed, 15 μL of stop buffer was added to stop the reaction, and centrifuged at 1000 rpm for 2 minutes.
(§17) S4.7. The microplates were placed on EZ Reader for reading.
(§18) S4.8. Readings on EZ Reader were calculated by using a peak height, where product conversion ratio (%)=product/(product+substrate)*100.
(§19) 5. Data Processing: IC50 calculation
(§20) A graphing software Xlfit was used to form a concentration curve of the test compound, and an IC50 value was calculated.
(§21) “A” means “≥10 μM”; “B” means “≥1 μM and <10 μM”; “C” means “≥0.1 μM and <1 μM”; and “D” means “<0.1 μM”.

JAK3 = biological target: T1, JAK3 (Homo sapiens, UniProt P52333); experiment: JAK kinase inhibition assay (EZ Reader, peptide substrate phosphorylation) - JAK3; conditions: JAK3 kinase 1 nM; 8 concentration points, max 10 μM
T1 sequence (P52333 1-1124): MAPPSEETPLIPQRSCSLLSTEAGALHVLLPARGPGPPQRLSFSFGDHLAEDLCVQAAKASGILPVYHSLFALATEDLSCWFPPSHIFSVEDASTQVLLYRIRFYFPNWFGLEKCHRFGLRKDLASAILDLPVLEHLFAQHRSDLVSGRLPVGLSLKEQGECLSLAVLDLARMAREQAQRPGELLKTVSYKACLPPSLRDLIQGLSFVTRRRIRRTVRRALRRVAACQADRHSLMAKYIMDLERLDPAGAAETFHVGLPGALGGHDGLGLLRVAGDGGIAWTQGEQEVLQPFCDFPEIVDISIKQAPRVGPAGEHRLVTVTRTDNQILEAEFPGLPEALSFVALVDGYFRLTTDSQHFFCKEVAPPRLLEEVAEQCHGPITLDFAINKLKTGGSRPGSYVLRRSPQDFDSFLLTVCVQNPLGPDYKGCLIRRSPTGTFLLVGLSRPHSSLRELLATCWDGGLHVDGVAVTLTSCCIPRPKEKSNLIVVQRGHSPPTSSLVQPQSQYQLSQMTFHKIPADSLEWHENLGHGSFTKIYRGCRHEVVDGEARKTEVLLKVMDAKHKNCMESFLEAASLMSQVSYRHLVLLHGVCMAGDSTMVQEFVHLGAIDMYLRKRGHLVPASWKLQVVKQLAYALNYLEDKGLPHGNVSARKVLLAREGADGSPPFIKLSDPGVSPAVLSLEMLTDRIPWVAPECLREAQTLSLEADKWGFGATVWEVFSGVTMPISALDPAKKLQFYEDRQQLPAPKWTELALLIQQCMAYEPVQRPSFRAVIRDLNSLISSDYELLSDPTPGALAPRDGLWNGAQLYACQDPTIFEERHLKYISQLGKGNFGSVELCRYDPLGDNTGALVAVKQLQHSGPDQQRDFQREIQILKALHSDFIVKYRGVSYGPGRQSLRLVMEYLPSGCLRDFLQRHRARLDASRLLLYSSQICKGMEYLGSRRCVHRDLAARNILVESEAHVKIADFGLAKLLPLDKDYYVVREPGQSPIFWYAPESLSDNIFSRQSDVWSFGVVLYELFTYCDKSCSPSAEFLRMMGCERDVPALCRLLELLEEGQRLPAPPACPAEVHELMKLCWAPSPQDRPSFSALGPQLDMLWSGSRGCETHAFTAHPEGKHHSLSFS
Source text: as §2, §3, §4, §5, §6, §7, §8
The compound was dissolved in dimethyl sulfoxide and diluted to 10 mM concentration, a certain volume of solution was taken and diluted to 0.6 mM concentration, 10 μL of the 0.6 mM dilution was added to a 384-well microplate, and then was diluted 3-fold with a total of 8 concentration points. […]
Positive control (HPE1): Ref2, final concentration: 10 μM
as §9, §10, §11, §12, §13, §14, §15, §16, §17, §18, §19, §20, §21

Tyk2 = Tyk2 (Homo sapiens, UniProt P29597); experiment: JAK kinase inhibition assay (EZ Reader, peptide substrate phosphorylation) - Tyk2; conditions: Tyk2 kinase 1 nM; 8 concentration points, max 10 μM
Outline: as §1

Tyk2, sequence (P29597 whole entry): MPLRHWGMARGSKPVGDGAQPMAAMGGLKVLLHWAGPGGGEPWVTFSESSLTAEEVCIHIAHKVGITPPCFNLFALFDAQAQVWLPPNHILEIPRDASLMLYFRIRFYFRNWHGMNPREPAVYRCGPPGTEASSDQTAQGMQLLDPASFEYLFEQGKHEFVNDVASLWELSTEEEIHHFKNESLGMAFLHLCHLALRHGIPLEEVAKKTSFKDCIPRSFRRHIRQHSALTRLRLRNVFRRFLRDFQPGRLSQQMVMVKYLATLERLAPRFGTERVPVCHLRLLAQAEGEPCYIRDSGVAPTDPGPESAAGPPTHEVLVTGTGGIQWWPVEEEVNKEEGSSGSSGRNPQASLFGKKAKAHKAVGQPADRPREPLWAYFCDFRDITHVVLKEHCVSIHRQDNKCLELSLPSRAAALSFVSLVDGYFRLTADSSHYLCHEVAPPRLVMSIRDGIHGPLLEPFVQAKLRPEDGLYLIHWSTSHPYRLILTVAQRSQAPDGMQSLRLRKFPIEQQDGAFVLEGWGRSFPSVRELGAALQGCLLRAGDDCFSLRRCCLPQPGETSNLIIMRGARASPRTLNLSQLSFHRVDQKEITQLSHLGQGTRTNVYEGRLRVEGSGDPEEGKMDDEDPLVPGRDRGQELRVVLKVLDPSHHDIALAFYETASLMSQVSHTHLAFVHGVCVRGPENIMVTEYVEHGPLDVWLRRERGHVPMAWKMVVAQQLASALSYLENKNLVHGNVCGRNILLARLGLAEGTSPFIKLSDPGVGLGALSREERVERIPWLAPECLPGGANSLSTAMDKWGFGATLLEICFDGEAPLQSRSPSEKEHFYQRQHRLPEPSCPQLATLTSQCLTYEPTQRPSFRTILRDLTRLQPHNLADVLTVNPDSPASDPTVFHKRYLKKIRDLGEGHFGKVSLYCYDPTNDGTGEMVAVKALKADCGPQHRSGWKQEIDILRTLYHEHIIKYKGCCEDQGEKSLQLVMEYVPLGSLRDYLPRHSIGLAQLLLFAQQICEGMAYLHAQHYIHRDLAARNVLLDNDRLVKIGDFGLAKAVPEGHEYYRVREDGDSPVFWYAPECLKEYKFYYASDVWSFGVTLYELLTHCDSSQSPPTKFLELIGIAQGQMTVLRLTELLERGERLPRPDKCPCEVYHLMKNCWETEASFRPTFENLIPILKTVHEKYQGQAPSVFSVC
JAK1, sequence (P23458 whole entry): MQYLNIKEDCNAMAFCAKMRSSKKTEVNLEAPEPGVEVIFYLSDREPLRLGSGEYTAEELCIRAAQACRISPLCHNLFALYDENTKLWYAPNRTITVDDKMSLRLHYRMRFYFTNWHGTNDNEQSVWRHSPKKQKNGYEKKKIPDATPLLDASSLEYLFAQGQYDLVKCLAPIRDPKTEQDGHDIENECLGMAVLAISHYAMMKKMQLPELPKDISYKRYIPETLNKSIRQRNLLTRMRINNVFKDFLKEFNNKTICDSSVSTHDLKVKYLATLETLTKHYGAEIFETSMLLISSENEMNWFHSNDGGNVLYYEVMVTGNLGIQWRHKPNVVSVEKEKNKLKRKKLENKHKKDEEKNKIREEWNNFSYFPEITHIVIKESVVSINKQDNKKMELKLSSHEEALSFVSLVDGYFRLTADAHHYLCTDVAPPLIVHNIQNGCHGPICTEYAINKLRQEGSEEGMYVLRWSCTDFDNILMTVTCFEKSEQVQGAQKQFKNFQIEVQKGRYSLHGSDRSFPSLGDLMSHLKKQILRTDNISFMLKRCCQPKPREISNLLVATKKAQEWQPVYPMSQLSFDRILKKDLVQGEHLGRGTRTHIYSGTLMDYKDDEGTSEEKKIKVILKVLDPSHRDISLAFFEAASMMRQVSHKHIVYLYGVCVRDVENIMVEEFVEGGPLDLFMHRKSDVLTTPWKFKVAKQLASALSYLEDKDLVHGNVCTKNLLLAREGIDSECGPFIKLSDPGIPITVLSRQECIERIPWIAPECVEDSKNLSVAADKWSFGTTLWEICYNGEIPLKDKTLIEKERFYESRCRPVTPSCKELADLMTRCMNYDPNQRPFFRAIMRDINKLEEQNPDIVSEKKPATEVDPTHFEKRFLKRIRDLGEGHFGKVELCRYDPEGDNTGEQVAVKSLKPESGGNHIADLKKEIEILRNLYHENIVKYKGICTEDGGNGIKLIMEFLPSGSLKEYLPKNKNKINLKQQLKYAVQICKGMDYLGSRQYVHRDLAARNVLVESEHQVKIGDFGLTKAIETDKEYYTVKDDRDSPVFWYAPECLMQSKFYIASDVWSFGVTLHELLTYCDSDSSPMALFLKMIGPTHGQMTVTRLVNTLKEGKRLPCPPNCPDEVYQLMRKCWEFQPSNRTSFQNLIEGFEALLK
JAK2, sequence (O60674 whole entry): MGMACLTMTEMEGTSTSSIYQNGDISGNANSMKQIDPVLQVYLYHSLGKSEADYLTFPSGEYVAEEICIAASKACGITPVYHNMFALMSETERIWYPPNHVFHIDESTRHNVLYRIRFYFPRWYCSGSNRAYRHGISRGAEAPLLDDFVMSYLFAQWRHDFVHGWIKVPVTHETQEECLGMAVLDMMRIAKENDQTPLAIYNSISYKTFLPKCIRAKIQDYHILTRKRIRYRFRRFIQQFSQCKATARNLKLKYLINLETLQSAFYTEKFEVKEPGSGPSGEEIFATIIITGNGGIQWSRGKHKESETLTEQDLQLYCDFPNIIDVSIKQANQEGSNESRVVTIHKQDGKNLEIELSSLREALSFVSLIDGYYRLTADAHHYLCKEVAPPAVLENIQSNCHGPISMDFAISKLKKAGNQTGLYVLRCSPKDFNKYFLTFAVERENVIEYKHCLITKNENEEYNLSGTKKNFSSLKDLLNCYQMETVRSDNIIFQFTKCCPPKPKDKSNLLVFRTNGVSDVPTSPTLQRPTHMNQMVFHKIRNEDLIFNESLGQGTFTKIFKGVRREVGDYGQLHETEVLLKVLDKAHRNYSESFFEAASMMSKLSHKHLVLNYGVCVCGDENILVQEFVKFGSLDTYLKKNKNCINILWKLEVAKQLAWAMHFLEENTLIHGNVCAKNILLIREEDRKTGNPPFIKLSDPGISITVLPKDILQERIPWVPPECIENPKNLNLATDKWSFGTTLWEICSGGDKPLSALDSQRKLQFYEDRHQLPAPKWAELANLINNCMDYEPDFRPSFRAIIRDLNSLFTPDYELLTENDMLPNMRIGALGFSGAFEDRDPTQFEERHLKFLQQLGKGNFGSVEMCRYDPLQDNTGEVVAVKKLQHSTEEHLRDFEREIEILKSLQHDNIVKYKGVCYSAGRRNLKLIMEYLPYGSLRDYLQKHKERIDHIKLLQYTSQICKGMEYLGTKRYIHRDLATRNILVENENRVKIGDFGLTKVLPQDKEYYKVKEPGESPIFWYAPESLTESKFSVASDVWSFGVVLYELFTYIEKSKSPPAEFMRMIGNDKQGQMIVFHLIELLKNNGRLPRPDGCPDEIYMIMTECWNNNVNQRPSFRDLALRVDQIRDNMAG

Structure (SMILES)	IC50 (JAK1)	IC50 (JAK2)	IC50 (JAK3)	IC50 (Tyk2)
Cn1cc(Nc2nccc(-c3ccc(C(=O)N4CCS(=O)(=O)CC4)nc3)n2)cn1 [TDM-180764, (1,1-sulfur dioxide) (5-(2-((1-methyl-1H-pyrazol-4-yl)amino)pyrimidin-4-yl)pyridin-2-yl)methanone]	1 to 10 µM	1 to 10 µM	≥ 10 µM	1 to 10 µM
Cn1cc(Nc2nccc(-c3ccc(NS(=O)(=O)C4CC4)cc3)n2)cn1 [TDM-180767, N-(4-(2-((1-methyl-1H-pyrazol-4-yl)amino)pyrimidin-4-yl)phenyl)cyclopropanesulfo]	0.1 to 1 µM	0.1 to 1 µM	1 to 10 µM	0.1 to 1 µM
CCS(=O)(=O)Nc1ccc(-c2ccnc(Nc3cnn(C)c3)n2)cc1 [TDM-180768, N-(4-(2-((1-methyl-1H-pyrazol-4-yl)amino)pyrimidin-4-yl)phenyl)ethanesulfonamide]	0.1 to 1 µM	0.1 to 1 µM	1 to 10 µM	0.1 to 1 µM
Cc1cc(-c2ccnc(Nc3cnn(C)c3)n2)ccc1C(=O)NCC(F)(F)F [TDM-180780, 2-methyl-4-(2-((1-methyl-1H-pyrazol-4-yl)amino)pyrimidin-4-yl)-N-(2,2,2-trifluoroethyl)benzamide]	0.1 to 1 µM	1 to 10 µM	> 10 µM	0.1 to 1 µM
Cn1cc(Nc2nccc(-c3ccc(NC(=O)C4(C)CC4)cc3)n2)cn1 [TDM-180802, 1-methyl-N-(4-(2-((1-methyl-1H-pyrazol-4-yl)amino)pyrimidin-4-yl)phenyl)cyclopropane-1-carboxamide]	0.1 to 1 µM	0.1 to 1 µM	≥ 10 µM	0.1 to 1 µM
Cn1cc(Nc2nccc(-c3ccc(NC(=O)C4(F)CC4)cc3)n2)cn1 [TDM-180803, 1-fluoro-N-(4-(2-((1-methyl-1H-pyrazol-4-yl)amino)pyrimidin-4-yl)phenyl)cyclopropane-1-carboxamide]	0.1 to 1 µM	0.1 to 1 µM	≥ 10 µM	0.1 to 1 µM
Cn1cc(Nc2nccc(-c3ccc(NC(=O)CC4CC4)cc3)n2)cn1 [TDM-180804, 2-cyclopropyl-N-(4-(2-((1-methyl-1H-pyrazol-4-yl)amino)pyrimidin-4-yl)phenyl)acetamide]	0.1 to 1 µM	0.1 to 1 µM	1 to 10 µM	0.1 to 1 µM

Results, then the molecule that gave them:

IC50 (JAK1)	IC50 (JAK2)	IC50 (JAK3)	IC50 (Tyk2)	Structure (SMILES)
0.1 to 1 µM	0.1 to 1 µM	1 to 10 µM	0.1 to 1 µM	Cn1cc(Nc2nccc(-c3ccc(NC(=O)C(F)F)cc3)n2)cn1 [TDM-180805, 2,2-difluoro-N-(4-(2-((1-methyl-1H-pyrazol-4-yl)amino)pyrimidin-4-yl)phenyl)acetamide]
0.1 to 1 µM	0.1 to 1 µM	≥ 10 µM	1 to 10 µM	Cn1cc(Nc2nccc(-c3ccc(NC(=O)C4CCC4)cc3)n2)cn1 [TDM-180813, N-(4-(2-((1-methyl-1H-pyrazol-4-yl)amino)pyrimidin-4-yl)phenyl)cyclobutanemethyl]
0.1 to 1 µM	0.1 to 1 µM	1 to 10 µM	1 to 10 µM	COCCC(=O)Nc1ccc(-c2ccnc(Nc3cnn(C)c3)n2)cn1 [TDM-180814, 3-methoxy-N-(5-(2-((1-methyl-1H-pyrazol-4-yl)amino)pyrimidin-4-yl)pyridin-2-yl)propanamide]
0.1 to 1 µM	0.1 to 1 µM	1 to 10 µM	0.1 to 1 µM	Cn1cc(Nc2nccc(-c3ccc(NC(=O)CC4CC4)nc3)n2)cn1 [TDM-180818, 2-cyclopropyl-N-(5-(2-((1-methyl-1H-pyrazol-4-yl)amino)pyrimidin-4-yl)pyridin-2-yl)acetamide]
0.1 to 1 µM	0.1 to 1 µM	1 to 10 µM	0.1 to 1 µM	Cn1cc(Nc2nccc(-c3ccc(NC(=O)C4CC4)nc3)n2)cn1 [TDM-180819, N-(5-(2-((1-methyl-1H-pyrazol-4-yl)amino)pyrimidin-4-yl)pyridin-2-yl)cyclopropylcarboxamide]
< 0.1 µM	< 0.1 µM	< 0.1 µM	< 0.1 µM	Cn1cc(Nc2nccc(-c3ccc(NS(=O)(=O)Cc4ccccc4)cc3)n2)cn1 [TDM-180820, N-(4-(2-((1-methyl-1H-pyrazol-4-yl)amino)pyrimidin-4-yl)phenyl)-1-phenylmethanesulfonamide]
0.1 to 1 µM	0.1 to 1 µM	≥ 10 µM	0.1 to 1 µM	Cn1cc(Nc2nccc(-c3ccc(NC(=O)C4(F)CC4)nc3)n2)cn1 [TDM-180821, 1-fluoro-N-(5-(2-((1-methyl-1H-pyrazol-4-yl)amino)pyrimidin-4-yl)pyridin-2-yl)cyclopropane-1-carboxamide]
< 0.1 µM	< 0.1 µM	0.1 to 1 µM	< 0.1 µM	Cn1cc(Nc2nccc(-c3ccc(NC(=O)C4CC4(F)F)nc3)n2)cn1 (stereo not drawn) [TDM-180822, 2,2-difluoro-N-(5-(2-((1-methyl-1H-pyrazol-4-yl)amino)pyrimidin-4-yl)pyridin-2-yl)cyclopropane-1-carboxamide]
